Experimental findings from patent publication US10093683B2, “Factor XIa inhibitors” (Merck Sharp & Dohme Corp., priority 2014, dated 2018) are described below.

In experiment [1] the target is human Factor XIa (Homo sapiens (Human), UniProt P03951). Briefly: Factor XIa Assay. Type of experiment: biochemical. To be noted: read-out: FXIa Ki. The method, boiled down:
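Purified human FXIa (40 pM final) hydrolysing fluorogenic Z-Gly-Pro-Arg-AFC (100 μM) in 50 mM HEPES pH 7.4, 150 mM NaCl, 5 mM CaCl2, 0.1% PEG 8000, at room temperature or 37° C. Initial velocities measured after enzyme–inhibitor equilibration; Ki from Vo/Vi versus [I], assuming competitive inhibition.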

The target of experiment [2] is Human plasma kallikrein (Homo sapiens (Human), UniProt P03952). Kind of experiment: Kallikrein Assay. To be noted: purified Human plasma kallikrein 0.5 nM, Acetyl-K-P-R-AFC, pH 7.4; Ki from IC50 by Cheng Prusoff. The experiment is classed as biochemical. The essentials: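 Purified human plasma kallikrein (0.5 nM final) with Acetyl-K-P-R-AFC substrate ([…]) in 50 mM HEPES pH 7.4, 150 mM NaCl, 5 mM CaCl2, 0.1% PEG 8000, after enzyme-inhibitor equilibration. Fluorescence (405 ex/510 em) under linear conditions; IC50 from four-parameter fit, converted to Ki by Cheng-Prusoff.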

The structures appear in SMILES notation.

Sequence of human Factor XIa (P03951 388-625): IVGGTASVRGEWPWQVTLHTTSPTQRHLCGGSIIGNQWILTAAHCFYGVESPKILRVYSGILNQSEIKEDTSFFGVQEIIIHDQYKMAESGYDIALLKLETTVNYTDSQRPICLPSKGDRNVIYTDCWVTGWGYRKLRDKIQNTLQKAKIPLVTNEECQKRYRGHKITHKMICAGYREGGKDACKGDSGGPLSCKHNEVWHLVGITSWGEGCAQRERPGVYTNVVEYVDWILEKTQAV
Sequence of human Factor XIa (P03951 19-387 partner): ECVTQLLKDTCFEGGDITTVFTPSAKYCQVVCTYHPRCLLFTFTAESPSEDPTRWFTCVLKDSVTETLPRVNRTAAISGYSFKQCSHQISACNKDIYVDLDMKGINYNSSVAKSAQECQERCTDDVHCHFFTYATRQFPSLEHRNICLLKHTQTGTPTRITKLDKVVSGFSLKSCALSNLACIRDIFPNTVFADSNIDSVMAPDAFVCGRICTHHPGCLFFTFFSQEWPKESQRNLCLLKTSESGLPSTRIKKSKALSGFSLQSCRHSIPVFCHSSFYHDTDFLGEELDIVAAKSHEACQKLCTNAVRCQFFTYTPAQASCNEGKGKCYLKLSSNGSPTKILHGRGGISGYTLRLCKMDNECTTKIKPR
Sequence of Human plasma kallikrein (P03952 391-638): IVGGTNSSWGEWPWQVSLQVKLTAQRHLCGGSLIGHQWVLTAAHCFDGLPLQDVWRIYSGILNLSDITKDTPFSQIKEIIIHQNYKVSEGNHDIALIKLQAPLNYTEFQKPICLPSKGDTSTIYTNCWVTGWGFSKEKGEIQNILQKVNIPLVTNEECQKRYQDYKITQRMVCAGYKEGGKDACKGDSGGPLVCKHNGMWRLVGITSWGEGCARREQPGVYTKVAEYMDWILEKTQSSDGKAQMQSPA
Sequence of Human plasma kallikrein (P03952 20-390 partner): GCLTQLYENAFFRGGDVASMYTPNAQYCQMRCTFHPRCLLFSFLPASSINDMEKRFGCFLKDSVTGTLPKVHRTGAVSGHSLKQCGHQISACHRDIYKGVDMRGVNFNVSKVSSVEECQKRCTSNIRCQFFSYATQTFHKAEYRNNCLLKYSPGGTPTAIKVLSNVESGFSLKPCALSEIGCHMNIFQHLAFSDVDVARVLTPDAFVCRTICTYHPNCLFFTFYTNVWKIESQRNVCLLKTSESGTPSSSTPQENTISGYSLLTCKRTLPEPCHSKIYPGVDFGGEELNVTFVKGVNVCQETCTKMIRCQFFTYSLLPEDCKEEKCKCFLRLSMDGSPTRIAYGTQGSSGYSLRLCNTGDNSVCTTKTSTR

Regarding `Nc1n[nH]c2cc(C(=O)N[C@@H](Cc3ccccc3)C(=O)N3CCCC4(C3)OC(=O)Nc3ccc(Cl)c(F)c34)ccc12` (stereo partly drawn) [Example 225], the values for the Ki in experiment [1] and in experiment [2] were 0.4 nM and 0.95 nM, respectively.
Taken in the same sequence, the figures for `COC(=O)n1nc(N)c2ccc(C(=O)N[C@@H](Cc3ccccc3)C(=O)N3CC[C@@]4(C3)OC(=O)Nc3ccc(Cl)cc34)cc21` [Example 226, Methyl 3-amino-6-(((S)-1-((R)-6-chloro-2-oxo-1,2-dihydrospiro[benzo[d][1,3]oxazine-4,3′-pyrrolidin]-1′-yl)-1-oxo-3-phenylpropan-2-yl)carbamoyl)-1H-indazole-1-carboxylate] were 18.1 nM and 23.2 nM.
Taken in the same sequence, the figures for `COC(=O)Nc1n[nH]c2cc(C(=O)N[C@@H](Cc3ccccc3)C(=O)N3CC[C@@]4(C3)OC(=O)Nc3ccc(Cl)cc34)ccc12` [Example 227, methyl (6-(((S)-1-((R)-6-chloro-2-oxo-1,2-dihydrospiro[benzo[d][1,3]oxazine-4,3′-pyrrolidin]-1′-yl)-1-oxo-3-phenylpropan-2-yl)carbamoyl)-1H-indazol-3-yl)carbamate] were 9 nM and 5 nM.
For the molecule `O=C1Nc2ccc(Cl)cc2[C@@]2(CCN(C(=O)[C@H](Cc3ccccc3)NC(=O)c3ccc4[nH]c(=O)[nH]c(=O)c4c3)C2)O1` [Example 228], the inhibition constant Ki (in general, a dissociation constant, usually derived from enzyme kinetics or from competition with a known ligand) in experiment [1] was found to be 17.1 nM; in experiment [2], 19.3 nM.
Taken in the same sequence, the figures for `COCC(=O)Nc1ccc(C(=O)N[C@@H](Cc2ccccc2)C(=O)N2CCC[C@@]3(C2)OC(=O)Nc2ccc(Cl)c(F)c23)cc1` [Example 230, N-((S)-1-((R)-6-chloro-5-fluoro-2-oxo-1,2-dihydrospiro[benzo[d][1,3]oxazine-4,3′-piperidin]-1′-yl)-1-oxo-3-phenylpropan-2-yl)-4-(2-methoxyacetamido)benzamide] were 17.3 nM and 2.72 nM.
Taken in the same sequence, the figures for `CC(C)OC(=O)Nc1ccc(C(=O)N[C@@H](Cc2ccccc2)C(=O)N2CCC[C@@]3(C2)OC(=O)Nc2ccc(Cl)c(F)c23)cc1` [Example 231, isopropyl (4-(((S)-1-((R)-6-chloro-5-fluoro-2-oxo-1,2-dihydrospiro[benzo[d][1,3]oxazine-4,3′-piperidin]-1′-yl)-1-oxo-3-phenylpropan-2-yl)carbamoyl)phenyl)carbamate] were 35.1 nM and 4.74 nM.
`O=C1Nc2ccc(Cl)c(F)c2[C@@]2(CCCN(C(=O)[C@H](Cc3ccccc3)NC(=O)c3ccc(B(O)O)s3)C2)O1` [Example 233]: the inhibition constant Ki turned out to be 7.88 nM in experiment [1] and 2.44 nM in experiment [2].
Take `COC(=O)Nc1cnc(C(=O)N[C@@H](Cc2ccccc2)C(=O)N2CCC[C@@]3(C2)OC(=O)Nc2ccc(Cl)c(F)c23)nc1` [Example 234]: the Ki in experiment [1] was found to be 16.9 nM; in experiment [2], 3.03 nM.
Taken in the same sequence, the figures for `O=C1Nc2ccc(Cl)c(F)c2[C@@]2(CCCN(C(=O)[C@H](Cc3ccccc3)NC(=O)c3ccc(-c4ncc[nH]4)s3)C2)O1` [Example 235] were 1.26 nM and 0.87 nM.
Regarding `O=C1Nc2ccc(Cl)c(F)c2[C@@]2(CCCN(C(=O)[C@H](CC3CC3)NC(=O)c3ccc(-c4ncc[nH]4)s3)C2)O1` [Example 237], the inhibition constant (Ki) in experiment [1] came to 5.85 nM; in experiment [2], 0.96 nM.
With `CC(=O)Nc1ccc(C(=O)N[C@@H](Cc2ccccc2)C(=O)N2CCC[C@@]3(C2)OC(=O)Nc2ccc(Cl)c(F)c23)cc1` [Example 240, 4-acetamido-N-((S)-1-((R)-6-chloro-5-fluoro-2-oxo-1,2-dihydrospiro[benzo[d][1,3]oxazine-4,3′-piperidin]-1′-yl)-1-oxo-3-phenylpropan-2-yl)benzamide], the Ki was found to be 4.28 nM in experiment [1] and 1.49 nM in experiment [2].
Taken in the same sequence, the figures for `COC(=O)NCc1ccc(C(=O)N[C@@H](Cc2ccccc2)C(=O)N2CCC[C@@]3(C2)OC(=O)Nc2ccc(Cl)c(F)c23)cc1` [Example 241, methyl (4-(((S)-1-((R)-6-chloro-5-fluoro-2-oxo-1,2-dihydrospiro[benzo[d][1,3]oxazine-4,3′-piperidin]-1′-yl)-1-oxo-3-phenylpropan-2-yl)carbamoyl)benzyl)carbamate] were 53.9 nM and 2.13 nM.
As for `NC(=O)c1ccc(C(=O)N[C@@H](Cc2ccccc2)C(=O)N2CCC[C@@]3(C2)OC(=O)Nc2ccc(Cl)c(F)c23)s1` [Example 245], the Ki in experiment [1] was found to be 0.97 nM; in experiment [2] it was 0.65 nM.
The corresponding values for `Cc1[nH]c2ccc(C(=O)N[C@@H](Cc3ccccc3)C(=O)N3CCC[C@@]4(C3)OC(=O)Nc3ccc(Cl)cc34)cc2c1C(=O)O` [Example 249] are 2.02 nM and under 1.36 nM.
The corresponding values for `Cc1cc2cc(C(=O)N[C@@H](Cc3ccccc3)C(=O)N3CCC[C@@]4(C3)OC(=O)Nc3ccc(Cl)cc34)ccc2[nH]1` [Example 250] are 41.9 nM and 13.3 nM.
For the molecule `O=C1CCc2cc(C(=O)N[C@@H](CC3CC3)C(=O)N3CCC[C@@]4(C3)OC(=O)Nc3ccc(Cl)c(F)c34)ccc2N1` [Example 251], the figures for the Ki in experiment [1] and in experiment [2] were 5.72 nM and under 1.36 nM, respectively.
Taken in the same sequence, the figures for `Nc1n[nH]c2cc(C(=O)N[C@@H](CC3CC3)C(=O)N3CCC[C@@]4(C3)OC(=O)Nc3ccc(Cl)c(F)c34)ccc12` [Example 254] were 2.11 nM and 0.83 nM.
Turning to `O=C1Nc2ccc(Cl)c(F)c2[C@@]2(CCCN(C(=O)[C@H](CC3CC3)NC(=O)c3ccc4[nH]c(=O)ccc4c3)C2)O1` [Example 255], the Ki in experiment [1] amounted to 4 nM; in experiment [2] it was 0.45 nM.
The corresponding values for `O=C1Nc2ccc(Cl)c(F)c2[C@@]2(CCCN(C(=O)[C@H](Cc3ccccc3)NC(=O)c3ccc4[nH]nc(C(F)(F)F)c4c3)C2)O1` [Example 256, N—((S)-1-((R)-6-chloro-5-fluoro-2-oxo-1,2-dihydrospiro[benzo[d][1,3]oxazine-4,3′-piperidin]-1′-yl)-1-oxo-3-phenylpropan-2-yl)-3-(trifluoromethyl)-1H-indazole-5-carboxamide] are over 875 nM and 31 nM.
The corresponding values for `O=C1Nc2ccc(Cl)c(F)c2[C@@]2(CCCN(C(=O)[C@H](Cc3ccccc3)NC(=O)c3ccc4[nH]c(=O)ccc4c3)C2)O1` [Example 257] are 0.78 nM and 0.57 nM.
The corresponding values for `Nc1n[nH]c2cc(C(=O)N[C@@H](Cc3ccncc3)C(=O)N3CC[C@@]4(C3)OC(=O)Nc3ccc(Cl)cc34)ccc12` [Example 258] are 1.73 nM and 4.08 nM.
Regarding `Nc1cc(C(=O)N[C@@H](Cc2ccccc2)C(=O)N2CCC3(C2)OC(=O)Nc2ccc(Cl)cc23)cc2[nH]cnc12` (stereo partly drawn) [Example 260], the Ki is 77.9 nM in experiment [1] and 130 nM in experiment [2].
The corresponding values for `Nc1n[nH]c2cc(C(=O)N[C@@H](CC(=O)N3CCC3)C(=O)N3CCC[C@@]4(C3)OC(=O)Nc3ccc(Cl)cc34)ccc12` [Example 266] are 3.82 nM and 1.22 nM.
The corresponding values for `O=C1Nc2ccc(Cl)c(F)c2[C@@]2(CCCN(C(=O)[C@H](Cc3ccc(F)cc3)NC(=O)c3cc(F)c(C(=O)C(=O)O)s3)C2)O1` [Example 267, 2-(5-(((S)-1-((R)-6-chloro-5-fluoro-2-oxo-1,2-dihydrospiro[benzo[d][1,3]oxazine-4,3′-piperidin]-1′-yl)-3-(4-fluorophenyl)-1-oxopropan-2-yl)carbamoyl)-3-fluorothiophen-2-yl)-2-oxoacetic acid] are 0.7 nM and 0.29 nM.
Taken in the same sequence, the figures for `Nc1n[nH]c2cc(C(=O)N[C@@H](CC(=O)N3CCCC3)C(=O)N3CCC[C@@]4(C3)OC(=O)Nc3ccc(Cl)cc34)ccc12` [Example 268] were 0.85 nM and 0.9 nM.
On to `CC(C)(O)C[C@H](NC(=O)c1ccc2c(N)n[nH]c2c1)C(=O)N1CCC[C@@]2(C1)OC(=O)Nc1ccc(Cl)cc12` [Example 269], for which the Ki was found to be 5 nM in experiment [1] and 3 nM in experiment [2].
Take `O=C(Nc1ccc(C(=O)N[C@@H](Cc2ccc(F)cc2)C(=O)N2CCC[C@@]3(C2)OC(=O)Nc2ccc(Cl)c(F)c23)cc1)OCCc1nnn[nH]1` [Example 274, 2-(1H-tetrazol-5-yl)ethyl (4-(((S)-1-((R)-6-chloro-5-fluoro-2-oxo-1,2-dihydrospiro[benzo[d][1,3]oxazine-4,3′-piperidin]-1′-yl)-3-(4-fluorophenyl)-1-oxopropan-2-yl)carbamoyl)phenyl)carbamate]: the Ki in experiment [1] amounted to 3.22 nM; in experiment [2], 0.65 nM.
